Columns and labels:
MAGL = MAGL (Mus musculus (Mouse), UniProt O35678); assay: In vitro competitive activity-based protein profiling, MAGL (mouse); format: biochemical; details: for inhibition at 1 µM: read-out: MAGL % inh. 1 μM (mouse)
How it was run: (§1)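 Proteomes at 1.0 mg/mL protein (mouse brain membranes or cell lysates; human prefrontal cortex or cell membranes) preincubated with inhibitor 30 min at 37 °C. Then FP-Rh or HT-01 probe (50 μM stock) added for 30 min at 37 °C. MAGL and FAAH activity measured by SDS-PAGE band fluorescence.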

FAAH = FAAH (Mus musculus (Mouse), UniProt O08914); assay: In vitro competitive activity-based protein profiling, FAAH (mouse); format: biochemical; details: for inhibition at 1 µM: read-out: FAAH % inh. 1 μM (mouse)
FAAH, sequence (O08914 whole entry): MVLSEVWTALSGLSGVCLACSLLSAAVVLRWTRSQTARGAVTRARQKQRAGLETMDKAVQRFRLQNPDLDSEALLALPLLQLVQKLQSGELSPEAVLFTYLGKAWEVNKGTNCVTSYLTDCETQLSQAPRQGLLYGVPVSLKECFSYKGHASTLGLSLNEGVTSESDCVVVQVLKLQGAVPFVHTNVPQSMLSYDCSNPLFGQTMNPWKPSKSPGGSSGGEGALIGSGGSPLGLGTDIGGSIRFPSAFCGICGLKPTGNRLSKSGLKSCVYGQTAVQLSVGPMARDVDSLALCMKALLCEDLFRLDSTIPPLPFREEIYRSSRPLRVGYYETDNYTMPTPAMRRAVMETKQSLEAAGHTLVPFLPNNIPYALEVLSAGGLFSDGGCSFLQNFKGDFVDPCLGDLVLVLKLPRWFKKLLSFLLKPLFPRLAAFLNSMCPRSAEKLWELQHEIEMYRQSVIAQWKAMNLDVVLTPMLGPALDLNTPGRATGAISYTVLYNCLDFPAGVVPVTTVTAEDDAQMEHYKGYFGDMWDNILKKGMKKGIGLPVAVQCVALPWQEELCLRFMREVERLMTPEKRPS
How it was run: as §1

MAGL, sequence (O35678 whole entry): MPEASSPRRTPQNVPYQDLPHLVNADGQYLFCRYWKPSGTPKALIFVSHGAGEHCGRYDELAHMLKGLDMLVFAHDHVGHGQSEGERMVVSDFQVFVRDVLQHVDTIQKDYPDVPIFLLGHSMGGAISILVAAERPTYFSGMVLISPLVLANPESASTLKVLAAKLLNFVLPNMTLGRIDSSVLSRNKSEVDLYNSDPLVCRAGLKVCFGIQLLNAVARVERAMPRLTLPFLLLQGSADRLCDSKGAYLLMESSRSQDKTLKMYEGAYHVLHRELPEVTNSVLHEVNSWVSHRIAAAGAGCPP

| inhibition at 1 µM (MAGL; 1 μM) [%] | inhibition at 1 µM (FAAH; 1 μM) [%] | IC50 (MAGL) [nM] | IC50 (FAAH) [nM] | Compound | MAGL % inh. 1 μM (mouse) (MAGL; 1 μM) | FAAH % inh. 1 μM (mouse) (FAAH; 1 μM) |
| --- | --- | --- | --- | --- | --- | --- |
| 25 to 50 | ≥ 75 |  |  | CC(=O)N(C)c1cnn(C(=O)N2CCC3(CCN(Cc4ccc(N5CCCC5)cc4)C3)C2)c1 (stereo not drawn) [Example 47, N-methyl-N-(1-(7-(4-(pyrrolidin-1-yl)benzyl)-2,7-diazaspiro[4.4]nonane-2-carbonyl)-1H-pyrazol-4-yl)acetamide] |  |  |
| ≥ 75 | ≥ 75 | ≤ 100 | ≤ 100 | CC(=O)N(C)c1cnn(C(=O)N2CCN(Cc3cccc(Oc4ccccc4)c3)CC2)c1 [Example 202, N-methyl-N-(1-(4-(3-phenoxybenzyl)piperazine-1-carbonyl)-1H-pyrazol-4-yl)acetamide] |  |  |
| ≥ 75 | 25 to 50 |  |  | CC(=O)N(C)c1cnn(C(=O)N2C[C@H]3C[C@@H](N(Cc4ccc(Cl)cc4)C(C)=O)C[C@H]3C2)c1 [Example 171, N-(4-chlorobenzyl)-N-(cis-2-(4-(N-methylacetamido)-1H-pyrazole-1-carbonyl)octahydrocyclopenta[c]pyrrol-5-yl)acetamide] |  |  |
| ≥ 75 | 0 to 25 |  |  | CC(=O)N(C)c1cnn(C(=O)N2CCC3(CC2)CN(Cc2ccc(N4CCOCC4)cc2)C3)c1 [Example 27, N-methyl-N-(1-(2-(4-morpholinobenzyl)-2,7-diazaspiro[3.5]nonane-7-carbonyl)-1H-pyrazol-4-yl)acetamide] |  |  |
| ≥ 75 | ≥ 75 | ≤ 100 | 100 to 1000 | CC(=O)N(C)c1cnn(C(=O)N2CCC3(CC2)CN(Cc2ccc(C(F)(F)F)cc2)C3)c1 [Example 26, N-methyl-N-(1-(2-(4-(trifluoromethyl)benzyl)-2,7-diazaspiro[3.5]nonane-7-carbonyl)-1H-pyrazol-4-yl)acetamide] |  |  |
| ≥ 75 | 0 to 25 |  |  | CC(=O)N(C)c1cnn(C(=O)N2CCN(Cc3cccc(N4CCOCC4)c3)CC2)c1 [Example 210, N-methyl-N-(1-(4-(3-morpholinobenzyl)piperazine-1-carbonyl)-1H-pyrazol-4-yl)acetamide] |  |  |
| ≥ 75 | ≥ 75 |  |  | CC(=O)N(C)c1cnn(C(=O)N2CC3CN(Cc4cc(C(F)(F)F)ccc4C(F)(F)F)CC3C2)c1 (stereo not drawn) [Example 126, N-(1-(5-(2,5-bis(trifluoromethyl)benzyl)octahydropyrrolo[3,4-c]pyrrole-2-carbonyl)-1H-pyrazol-4-yl)-N-methylacetamide] |  |  |
| ≥ 75 | ≥ 75 |  |  | CC(=O)N(C)c1cnn(C(=O)N2C[C@H]3C[C@@H](N(C)Cc4cc(Cl)ccc4Cl)C[C@H]3C2)c1 [Example 162, N-(1-(cis-5-((2,5-dichlorobenzyl)(methyl)amino)octahydrocyclopenta[c]pyrrole-2-carbonyl)-1H-pyrazol-4-yl)-N-methylacetamide] |  |  |
| ≥ 75 | ≥ 75 | ≤ 100 | 100 to 1000 | CC(=O)N(C)c1cnn(C(=O)N2CCN(Cc3cccc(N4CCCC4)c3)CC2)c1 [Example 208, N-methyl-N-(1-(4-(3-(pyrrolidin-1-yl)benzyl)piperazine-1-carbonyl)-1H-pyrazol-4-yl)acetamide] |  |  |
| ≥ 75 | ≥ 75 |  |  | CC(=O)N(C)c1cnn(C(=O)N2C[C@H]3C[C@@H](NCc4ccc(Cl)cc4)C[C@H]3C2)c1 [Example 135, N-(1-(cis-5-(4-chlorobenzylamino)octahydrocyclopenta[c]pyrrole-2-carbonyl)-1H-pyrazol-4-yl)-N-methylacetamide] |  |  |
| ≥ 75 | ≥ 75 | ≤ 100 | ≤ 100 | CC(=O)N(C)c1cnn(C(=O)N2CCN(Cc3cccc(C(F)(F)F)c3)CC2)c1 [Example 209, N-methyl-N-(1-(4-(3-(trifluoromethyl)benzyl)piperazine-1-carbonyl)-1H-pyrazol-4-yl)acetamide] |  |  |
| ≥ 75 | ≥ 75 | 100 to 1000 | ≤ 100 | CC(=O)N(C)c1cnn(C(=O)N2CCC3(CCN(Cc4cc(Cl)cc(Cl)c4)C3)C2)c1 (stereo not drawn) [Example 53, N-(1-(7-(3,5-dichlorobenzyl)-2,7-diazaspiro[4.4]nonane-2-carbonyl)-1H-pyrazol-4-yl)-N-methylacetamide] |  |  |
| 50 to 75 | ≥ 75 | 1000 to 10000 | ≤ 100 | CC(=O)N(C)c1cnn(C(=O)N2CC3(CCN(Cc4cccc(Oc5ccccc5)c4)CC3)C2)c1 [Example 229, N-methyl-N-(1-(7-(3-phenoxybenzyl)-2,7-diazaspiro[3.5]nonane-2-carbonyl)-1H-pyrazol-4-yl)acetamide] |  |  |
| ≥ 75 | ≥ 75 |  |  | CC(=O)N(C)c1cnn(C(=O)N2CC3CN(Cc4ccc(N5CCOCC5)c(C(F)(F)F)c4)CC3C2)c1 (stereo not drawn) [Example 99, N-methyl-N-(1-(5-(4-morpholino-3-(trifluoromethyl)benzyl)octahydropyrrolo[3,4-c]pyrrole-2-carbonyl)-1H-pyrazol-4-yl)acetamide] |  |  |
| ≥ 75 | ≥ 75 | ≤ 100 | ≤ 100 | CC(=O)N(C)c1cnn(C(=O)N2CC3CN(Cc4cc(N5CCOCC5)cc(C(F)(F)F)c4)CC3C2)c1 (stereo not drawn) [Example 114, N-methyl-N-(1-(5-(3-morpholino-5-(trifluoromethyl)benzyl)octahydropyrrolo[3,4-c]pyrrole-2-carbonyl)-1H-pyrazol-4-yl)acetamide] |  |  |
| ≥ 75 | ≥ 75 | ≤ 100 | ≤ 100 | CC(=O)N(C)c1cnn(C(=O)N2CC3CN(Cc4ccc(C)cc4Cl)CC3C2)c1 (stereo not drawn) [Example 115, N-(1-(5-(2-chloro-4-methylbenzyl)octahydropyrrolo[3,4-c]pyrrole-2-carbonyl)-1H-pyrazol-4-yl)-N-methylacetamide] |  |  |
| ≥ 75 | 0 to 25 |  |  | CC(=O)N(C)c1cnn(C(=O)N2CCN(Cc3ccccc3N3CCOCC3)CC2)c1 [Example 216, N-methyl-N-(1-(4-(2-morpholinobenzyl)piperazine-1-carbonyl)-1H-pyrazol-4-yl)acetamide] |  |  |
| ≥ 75 | ≥ 75 |  |  | CS(=O)(=O)Nc1cnn(C(=O)N2CCC3(CCN(Cc4cc(Cl)ccc4C(F)(F)F)C3)CC2)c1 [Example 276, N-(1-(2-(5-chloro-2-(trifluoromethyl)benzyl)-2,8-diazaspiro[4.5]decane-8-carbonyl)-1H-pyrazol-4-yl)methanesulfonamide] |  |  |

| Compound | inhibition at 1 µM (MAGL; 1 μM) [%] | inhibition at 1 µM (FAAH; 1 μM) [%] | IC50 (MAGL) [nM] | IC50 (FAAH) [nM] | MAGL % inh. 1 μM (mouse) (MAGL; 1 μM) | FAAH % inh. 1 μM (mouse) (FAAH; 1 μM) |
| --- | --- | --- | --- | --- | --- | --- |
| N-(1-(5-(3-(4- methoxyphenoxy)benzyl) octahydropyrrolo[3,4-c]pyrrole-2- carbonyl)-1H-pyrazol-4-yl)-N- methylacetamide [Example 243] |  |  | ≤ 100 | ≤ 100 | A (A = % inhibition greater than or equal to 75%) | A (A = % inhibition greater than or equal to 75%) |
| CC(=O)Nc1cnn(C(=O)N2CCN(Cc3ccc(C(F)(F)F)cc3N3C4CCC3COC4)CC2)c1 [Example 228, N-(1-(4-(2-(3-oxa-8-azabicyclo[3.2.1]octan-8-yl)-4-(trifluoromethyl)benzyl)piperazine-1-carbonyl)-1H-pyrazol-4-yl)acetamide] | ≥ 75 | 0 to 25 | 100 to 1000 | 1000 to 10000 |  |  |

Source: US10323038B2, “Pyrazole compounds and methods of making and using same” (ABIDE THERAPEUTICS, INC., priority 2015, dated 2019)
